The results in this text go back to patent publication US20160039914A1 (priority 2013, published 2016).

Assay [1] relates to S. aureus (MRSA strain 38). Conditions: in vivo, iv.
A further assay has as its system MRSA strain 38. Also noted: species or system S. aureus. Conditions: in vivo.

As for `CN[C@H](CC(C)C)C(=O)N[C@H]1C(=O)N[C@@H](CC(N)=O)C(=O)N[C@H]2C(=O)N[C@H]3C(=O)N[C@H](C(=O)N[C@H](C(=O)O)c4cc(O)cc(O)c4-c4cc3ccc4O)[C@H](O)c3ccc(c(Cl)c3)Oc3cc2cc(c3O[C@@H]2O[C@H](CO)[C@@H](O)[C@H](O)[C@H]2O[C@H]2C[C@](C)(N)[C@H](O)[C@H](C)O2)Oc2ccc(cc2Cl)[C@H]1O` [vancomycin], in assay [1], the IFN-γ in serum came to 2.98 ± 1.64, the IL-1β in serum is recorded as 3.51 ± 1.08, the IL-6 in serum worked out at 379.72 ± 335.45 and the IL-10 in serum amounted to 16.75 ± 6.67. In assay [1], this compound showed an IL-12p70 in serum of 61.55 ± 23.71, a KC/GRO in serum of 260.69 ± 122.01 and a TNF-α in serum of 1.46 ± 0.68. Besides, in the assay on MRSA strain 38, the “mIL-1ra level in abscess fluid” value is given as “not significantly reduced”; the “mIL-6 level in abscess fluid” value is recorded as “not significantly reduced”; the “neutrophil and eosinophil counts” value is listed as “lower”.
